Results on one molecule are retold here after article PMC10350923, “In Vitro and In Vivo Biological Activities of Dipicolinate Oxovanadium(IV) Complexes” (Journal of Medicinal Chemistry, 2023).

Data set [1] relates to HCT116-DoxR cells. The data set can be described thus: Cell cycle progression, PI, flow cytometry. As to conditions: HCT116-DoxR, 3, 9, 24, 32 h; complexes at IC50, cisplatin 5 μM, Dox 6 μM. In general terms: In flow cytometry, cells or beads pass a laser one at a time.
The test system of data set [2] is HCT116-DoxR (doxorubicin-resistant colorectal carcinoma cell line). As to conditions: doxorubicin in resistant line; cited from earlier work.
For data set [3], the system named is HCT116-DoxR cells. The data set can be described thus: Alexa Fluor 488-annexin V/PI apoptosis assay, flow cytometry. The class given is cell-based, human. As to conditions: 48 h, complexes at IC50, cisplatin 5 μM, Dox 6 μM.
For data set [4], the system named is HCT116-DoxR cells. The data set can be described thus: Autophagy induction, Green Detection Reagent, flow cytometry. As to conditions: 48 h, complexes at IC50, cisplatin 5 μM, Dox 6 μM.
For data set [5], the system named is HCT116 (colorectal carcinoma cell line). The data set can be described thus: MTS cell viability assay, HCT116. In kind it is cell-based, human. As to conditions: Homo sapiens, HCT-116, 48 h of exposure, mean ± SEM. (Tetrazolium dyes change colour on reduction, which living cells bring about.)
The test system of data set [6] is A2780 (ovarian carcinoma cell line). The data set can be described thus: MTS cell viability assay, A2780. The class given is cell-based, human. As to conditions: Homo sapiens, A2780, 48 h of exposure, mean ± SEM.

The structures appear in SMILES notation.

What is called IC50 is the midpoint of a concentration-inhibition curve. Turning to `COc1cccc2c1C(=O)c1c(O)c3c(c(O)c1C2=O)C[C@@](O)(C(=O)CO)C[C@@H]3O[C@H]1C[C@H](N)[C@H](O)[C@H](C)O1` [doxorubicin, reference compound], the “cell cycle arrest / cytostatic effect” value in the data set on HCT116-DoxR cells [1] is “did not occur”. Moreover, the IC50 in data set [2] was over 6 µM. In addition, in the data set on HCT116-DoxR cells [3], the early apoptosis stood at 19.0 ± 4.4%, the necrosis was 11.2 ± 2.0%, the “percentage of apoptosis (total)” value is 34% and the viable cells is recorded as 54.9 ± 4.3%. Moreover, in the data set on HCT116-DoxR cells [3] (listed as Dox), the necrosis turned out to be 11% and the viable cells result is “about 55%”. In the data set on HCT116-DoxR cells [4], the “increase of autophagic vesicles over the control” value is about 2.3 fold. The same molecule yielded a half-maximal inhibitory concentration (IC50) in data set [5] of 0.5 ± 0.1 µM. In addition, the half-maximal inhibitory concentration (IC50) in data set [6] was determined as 0.1 ± 0.04 µM.
